Laboratory results reported in patent publication US20200000825A1, “METHODS AND COMPOSITIONS FOR TREATING AND PREVENTING VIRAL INFECTIONS” (ENTERIN LABORATORIES, INC., priority 2009, published 2020).
Read-outs that look alike come from different tables or passages of the source.

What was measured:
Human Oct 1 = biological target: T1, Human Oct 1 (Homo sapiens, UniProt O15245); experiment: MPP uptake inhibition (transport competition) assay in CHO cells over-expressing a human Oct transporter; assay type: cell-based
T1 sequence (O15245 1-554): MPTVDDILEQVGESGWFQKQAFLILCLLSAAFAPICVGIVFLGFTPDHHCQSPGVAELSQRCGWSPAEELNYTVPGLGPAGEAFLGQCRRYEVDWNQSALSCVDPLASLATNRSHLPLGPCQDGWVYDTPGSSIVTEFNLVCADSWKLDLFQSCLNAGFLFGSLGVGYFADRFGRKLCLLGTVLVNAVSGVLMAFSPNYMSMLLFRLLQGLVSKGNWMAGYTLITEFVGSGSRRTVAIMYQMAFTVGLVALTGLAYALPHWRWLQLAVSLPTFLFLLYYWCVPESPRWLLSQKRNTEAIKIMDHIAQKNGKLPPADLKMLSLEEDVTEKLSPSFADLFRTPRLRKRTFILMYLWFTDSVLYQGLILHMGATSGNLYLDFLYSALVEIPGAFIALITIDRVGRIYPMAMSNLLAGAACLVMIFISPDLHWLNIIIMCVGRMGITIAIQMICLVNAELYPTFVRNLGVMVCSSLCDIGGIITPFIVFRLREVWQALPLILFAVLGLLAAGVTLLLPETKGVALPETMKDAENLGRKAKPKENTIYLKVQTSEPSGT
Method: (§1) This example determines whether squalamine is a substrate for the organic cation transporter (Oct). This determination employed a standard transport competition assay, described in the literature (Lips, Volk et al. 2005).
(§2) Chinese hamster ovary cells, previously engineered to over-express a specific human Oct transporter were used in the assay. In this example, the effect of a specific concentration of an amino sterol is determined on the intracellular uptake of radiolabelled 1-methyl-4-phenylpyridine (MPP) (at 0.01 μM), measured after a 1-second exposure. […] IC50 refers to the concentration of squalamine or 1436 required to inhibit MPP uptake by 50%. Table 1 below describes the affinity of squalamine and Amino sterol 1436 for human organic cation transporters (Human Oct 1, Human Oct 2, and Human Oct 3) based upon the MPP uptake inhibition assay.

Human Oct 2 = biological target: T2, Human Oct 2 (Homo sapiens, UniProt O15244); experiment: as above; assay type: cell-based
T2 sequence (O15244 1-555): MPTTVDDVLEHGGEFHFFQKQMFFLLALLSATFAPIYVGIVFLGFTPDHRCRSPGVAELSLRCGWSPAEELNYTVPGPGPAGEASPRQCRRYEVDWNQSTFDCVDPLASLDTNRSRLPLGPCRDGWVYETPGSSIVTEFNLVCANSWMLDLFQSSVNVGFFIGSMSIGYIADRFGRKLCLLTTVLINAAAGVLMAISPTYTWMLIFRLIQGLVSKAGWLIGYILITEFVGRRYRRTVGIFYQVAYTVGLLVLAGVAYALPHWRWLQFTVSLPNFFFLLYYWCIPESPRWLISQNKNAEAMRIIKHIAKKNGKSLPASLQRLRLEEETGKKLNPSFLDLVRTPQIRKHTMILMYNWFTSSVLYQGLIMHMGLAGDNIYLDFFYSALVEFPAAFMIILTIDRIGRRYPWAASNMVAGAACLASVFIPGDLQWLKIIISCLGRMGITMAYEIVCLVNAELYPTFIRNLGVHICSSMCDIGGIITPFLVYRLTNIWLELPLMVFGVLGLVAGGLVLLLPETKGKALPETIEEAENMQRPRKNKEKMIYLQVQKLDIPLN
Method: as §1, §2

Yellow Fever = assay type: in vivo, Syrian hamsters
human Hepatitis B virus = experiment: Hepatitis B virus replication in primary human hepatocytes, PCR (Example 12); assay type: cell-based
Method: Primary human hepatocytes were established in a 96 well microtiter plate. Squalamine was then added at concentrations of 2, 6 or 20 μg/ml followed by an inoculum of Hep B virus, and then in culture for 16 hours, after which fresh medium was introduced, and the cells maintained in culture for 14 days. In a second experiment, squalamine at 6 or 20 μg/ml was added to the cells at 24 hours post inoculation for a 16 hour exposure, followed by removal of medium, replacement with fresh medium, and continued culture for 14 days. Viral growth was measured by PCR using viral specific primers and normalized to the total RNA extracted from each corresponding well.

[1] = 100 μM aminosterol, radiolabelled MPP 0.01 μM, 1-second exposure
[2] = read-out: IC50 (concentration required to inhibit MPP uptake by 50%)

Q: What does the source list for `CC(C)[C@@H](CC[C@@H](C)[C@H]1CC[C@H]2[C@@H]3[C@H](O)C[C@H]4C[C@@H](NCCCNCCCCN)CC[C@]4(C)[C@H]3CC[C@]12C)OS(=O)(=O)O` [Squalamine, squalamine]?
A: % Inhibition of MPP uptake caused by 100 μM (Human Oct 1; [1]): 25%; IC50 (Human Oct 1; [2]): 34 µM; % Inhibition of MPP uptake caused by 100 μM (Human Oct 2; [1]): 40%; IC50 (Human Oct 2; [2]): 50 µM; Animals cured (survival through day 21) (Yellow Fever; squalamine 15 mg/kg/day s.c. from 1 dpi to 8 dpi): 60%; Animals cured (survival through day 21) (Yellow Fever; squalamine 30 mg/kg/day s.c. from 1 dpi to 8 dpi): 60%; Animals cured (survival through day 21) (Yellow Fever; squalamine 30 mg/kg/day s.c. from 2 dpi to 9 dpi): 40%; Inhibition of viral production (human Hepatitis B virus; 2 μg/ml, added at the outset of infection): 14%; Inhibition of viral production (human Hepatitis B virus; 6 μg/ml, added at 24 hours): 30%; Inhibition of viral production (human Hepatitis B virus; 6 μg/ml, added at the onset of infection): 54%; Inhibition of viral production (human Hepatitis B virus; 20 μg/ml, added at 24 hours): 64%; Inhibition of viral production (human Hepatitis B virus; 20 μg/ml, added during initial stages of infection): 83%
